Laboratory results reported in DBAASP.
In brackets after ≈: the same amount, converted by molar mass.

Columns and labels:
Assay in all cases: ≥ marks a high value that may be exact or a test limit, other limits are often not marked, values filed in µg/mL are converted to µM
[1] = system: Pseudomonas aeruginosa ATCC 27853
[2] = system: Staphylococcus epidermidis ATCC 12228
[3] = system: Bacillus subtilis ATCC 6633
[4] = system: Staphylococcus aureus ATCC 25923
[5] = system: Klebsiella pneumoniae ATCC 700603
[6] = system: Escherichia coli ATCC 25922
[7] = system: Candida albicans ATCC 90028
[8] = system: Staphylococcus aureus NCTC 8325
Klebsiella pneumoniae = system: Klebsiella pneumoniae
[9] = system: Salmonella enterica subsp. enterica serovar Typhimurium ATCC 14028
Bacillus subtilis = system: Bacillus subtilis
Salmonella typhimurium = system: Salmonella typhimurium
Staphylococcus aureus = system: Staphylococcus aureus
Escherichia coli = system: Escherichia coli
[10] = system: Staphylococcus epidermidis
[11] = system: Candida albicans ATCC 10231
[12] = system: Enterococcus faecalis ATCC 29212
[13] = system: Staphylococcus aureus ATCC 43300
Pseudomonas aeruginosa = system: Pseudomonas aeruginosa
[14] = system: Klebsiella pneumoniae ATCC 13883
Bacillus cereus = system: Bacillus cereus
[15] = system: Escherichia coli DH5alpha

Structure (SMILES): CC(=O)N[C@@H](Cc1ccccc1)C(=O)N[C@@H](CCCCN)C(=O)N[C@@H](CCCCN)C(=O)N[C@@H](CC(C)C)C(=O)N[C@@H](CCCCN)C(=O)N[C@@H](CCCCN)C(=O)N[C@@H](CC(C)C)C(=O)N[C@@H](Cc1ccccc1)C(=O)N[C@@H](CO)C(=O)N[C@@H](CCCCN)C(=O)N[C@@H](CC(C)C)C(=O)N[C@@H](CCCCN)C(=O)N[C@@H](CC(N)=O)C(=O)N[C@@H](Cc1c[nH]c2ccccc12)C(=O)N[C@@H](Cc1c[nH]c2ccccc12)C(N)=O [FKKLKKLFSKLKNWW]
- MIC [1]: 3.2 µM (≈ 6.51 µg/mL)
- MIC [2]: 1.6 µM (≈ 3.26 µg/mL)
- MIC [3]: 1.6 µM (≈ 3.26 µg/mL)
- MIC [4]: 3.2 µM (≈ 6.51 µg/mL)
- MIC [5]: 3.2 µM (≈ 6.51 µg/mL)
- MIC [6]: 1.6 µM (≈ 3.26 µg/mL)

Structure (SMILES): CC[C@H](C)[C@@H]1NC(=O)[C@H](C)NC(=O)[C@@H](NC(=O)[C@H](Cc2ccccc2)NC(=O)[C@@H](NC(=O)[C@H](CCCCN)NC(=O)[C@@H]2CCCN2C(=O)[C@H](Cc2ccccc2)NC(=O)[C@@H](NC(=O)[C@H](CCCCN)NC(=O)[C@H](C)NC(=O)[C@H](C)NC(=O)[C@@H](NC(=O)CNC(=O)[C@H](C)NC(=O)[C@@H](NC(=O)[C@@H](NC(=O)[C@@H]2CCCN2C(=O)[C@H](CC(C)C)NC(=O)[C@@H](N)Cc2ccccc2)[C@@H](C)CC)[C@@H](C)CC)C(C)C)C(C)C)[C@@H](C)CC)CSSC[C@@H](C(=O)O)NC(=O)[C@H](CCCCN)NC(=O)[C@H](CCCCN)NC(=O)[C@H](CO)NC1=O [FLPIIAGVAAKVFPKIFCAISKKC]
- MIC [7]: 5 µM (≈ 12.8 µg/mL)
- MIC [8]: 7 µM (≈ 17.9 µg/mL)
- MIC [6]: 14 µM (≈ 35.9 µg/mL)

Structure (SMILES): CC[C@H](C)[C@H](NC(=O)[C@H](CC(C)C)NC(=O)[C@H](CC(=O)O)NC(=O)[C@H](CO)NC(=O)[C@@H](NC(=O)[C@H](C)NC(=O)[C@H](CCCCN)NC(=O)[C@@H](NC(=O)[C@H](C)NC(=O)[C@H](Cc1cnc[nH]1)NC(=O)[C@@H]1CCCN1C(=O)[C@@H](NC(=O)[C@H](CC(C)C)NC(=O)[C@@H]1CCCN1C(=O)CNC(=O)[C@@H](NC(=O)[C@H](Cc1ccc(O)cc1)NC(=O)[C@H](CCCCN)NC(=O)[C@H](CCSC)NC(=O)[C@H](Cc1ccccc1)NC(=O)CN)[C@@H](C)CC)[C@@H](C)CC)C(C)C)[C@@H](C)CC)C(=O)O [GFMKYIGPLIPHAVKAISDLI]
- MIC [7]: ≥ 200 µM
- MIC [8]: ≥ 100 µM
- MIC [6]: 25 µM (≈ 57.1 µg/mL)

Structure (SMILES): CC[C@H](C)[C@H](NC(=O)[C@H](CC(C)C)NC(=O)[C@H](CC(=O)O)NC(=O)[C@H](CO)NC(=O)[C@@H](NC(=O)[C@H](C)NC(=O)[C@H](CCCCN)NC(=O)[C@@H](NC(=O)[C@H](CCCCN)NC(=O)[C@H](Cc1cnc[nH]1)NC(=O)[C@@H]1CCCN1C(=O)[C@@H](NC(=O)[C@H](CC(C)C)NC(=O)[C@@H]1CCCN1C(=O)CNC(=O)[C@@H](NC(=O)[C@H](Cc1ccc(O)cc1)NC(=O)[C@H](CCCCN)NC(=O)[C@H](CCSC)NC(=O)[C@H](Cc1ccccc1)NC(=O)CN)[C@@H](C)CC)[C@@H](C)CC)C(C)C)[C@@H](C)CC)C(N)=O [GFMKYIGPLIPHKVKAISDLI]
- MIC [7]: ≥ 200 µM
- MIC [8]: ≥ 200 µM
- MIC [6]: 100 µM (≈ 234 µg/mL)

Structure (SMILES): CC[C@H](C)[C@H](NC(=O)[C@H](CC(C)C)NC(=O)[C@H](CCCCN)NC(=O)[C@H](CO)NC(=O)[C@@H](NC(=O)[C@H](C)NC(=O)[C@H](CCCCN)NC(=O)[C@@H](NC(=O)[C@H](C)NC(=O)[C@H](Cc1cnc[nH]1)NC(=O)[C@@H]1CCCN1C(=O)[C@@H](NC(=O)[C@H](CC(C)C)NC(=O)[C@@H]1CCCN1C(=O)[C@H](CCCCN)NC(=O)[C@@H](NC(=O)[C@H](Cc1ccc(O)cc1)NC(=O)[C@H](CCCCN)NC(=O)[C@H](CCSC)NC(=O)[C@H](Cc1ccccc1)NC(=O)CN)[C@@H](C)CC)[C@@H](C)CC)C(C)C)[C@@H](C)CC)C(=O)O [GFMKYIKPLIPHAVKAISKLI]
- MIC [7]: ≥ 50 µM
- MIC [8]: 25 µM (≈ 59.2 µg/mL)
- MIC [6]: 12.5 µM (≈ 29.6 µg/mL)

Structure (SMILES): CC[C@H](C)[C@H](NC(=O)[C@H](Cc1ccc(O)cc1)NC(=O)[C@@H](NC(=O)[C@@H]1CCCN1C(=O)[C@H](CCCN=C(N)N)NC(=O)[C@H](CC(N)=O)NC(=O)[C@H](CC(N)=O)NC(=O)CN)C(C)C)C(=O)N1CCC[C@H]1C(=O)N[C@@H](CCC(N)=O)C(=O)N1CCC[C@H]1C(=O)N[C@@H](CCCN=C(N)N)C(=O)N1CCC[C@H]1C(=O)N[C@@H](Cc1cnc[nH]1)C(=O)N1CCC[C@H]1C(=O)N[C@@H](CCCN=C(N)N)C(=O)N[C@@H](CC(C)C)C(=O)O [GNNRPVYIPQPRPHPRL]
- MIC (Klebsiella pneumoniae): > 128 µM
- MIC [9]: > 128 µM
- MIC [6]: 128 µM (≈ 257 µg/mL)

Structure (SMILES): CC(C)[C@H](NC(=O)CNC(=O)[C@H](CCCN=C(N)N)NC(=O)[C@@H](NC(=O)[C@@H](NC(=O)[C@@H](NC(=O)[C@H](CCCN=C(N)N)NC(=O)CNC(=O)[C@@H](NC(=O)[C@H](CCCN=C(N)N)NC(=O)[C@@H](NC(=O)[C@@H](NC(=O)[C@@H](NC(=O)CN)C(C)C)C(C)C)C(C)C)C(C)C)C(C)C)C(C)C)C(C)C)C(=O)N[C@@H](CCCN=C(N)N)C(=O)N[C@@H](CCCN=C(N)N)C(N)=O [GVVVRVGRVVVRGVRR]
- MIC (Bacillus subtilis): 8 µM (≈ 14.1 µg/mL)
- MIC (Salmonella typhimurium): 8 µM (≈ 14.1 µg/mL)
- MIC (Staphylococcus aureus): 16 µM (≈ 28.2 µg/mL)
- MIC (Escherichia coli): 8 µM (≈ 14.1 µg/mL)

Structure (SMILES): CC(C)[C@H](NC(=O)CNC(=O)[C@@H](N)Cc1cnc[nH]1)C(=O)N[C@@H](CO)C(=O)NCC(=O)N[C@@H](Cc1cnc[nH]1)C(=O)NCC(=O)N[C@@H](CCC(N)=O)C(=O)N[C@@H](Cc1cnc[nH]1)C(=O)NCC(=O)N[C@H](C(=O)N[C@@H](Cc1cnc[nH]1)C(=O)NCC(=O)O)C(C)C [HGVSGHGQHGVHG]
- MIC [10]: 25.3 µM (≈ 32 µg/mL)
- MIC [11]: > 101 µM
- MIC (Klebsiella pneumoniae): 12.6 µM (≈ 16 µg/mL)
- MIC [12]: > 101 µM
- MIC [4]: 12.6 µM (≈ 16 µg/mL)
- MIC [13]: > 101 µM
- MIC (Staphylococcus aureus): 50.6 µM (≈ 64 µg/mL)
- MIC (Escherichia coli): 12.6 µM (≈ 16 µg/mL)
- MIC (Pseudomonas aeruginosa): 25.3 µM (≈ 32 µg/mL)
- MIC [14]: 12.6 µM (≈ 16 µg/mL)

Structure (SMILES): CC[C@H](C)[C@H](NC(=O)CNC(=O)[C@H](CCCN=C(N)N)NC(=O)[C@H](C)NC(=O)[C@H](CCSC)NC(=O)[C@@H]1CCCN1C(=O)[C@H](C)NC(=O)CNC(=O)[C@H](CCC(=O)O)NC(=O)[C@H](CC(C)C)NC(=O)[C@@H]1CCCN1C(=O)[C@H](CC(=O)O)NC(=O)[C@H](Cc1ccccc1)NC(=O)[C@@H](N)CCCCN)C(=O)N[C@H](C(=O)N[C@@H](CC(C)C)C(=O)N[C@@H](CCC(=O)O)C(=O)N[C@@H](CCCCN)C(=O)N[C@H](C(=O)NCC(=O)O)C(C)C)C(C)C [KFDPLEGAPMARGIVLEKVG]
- MIC (Bacillus cereus): ≥ 120 µM
- MIC (Escherichia coli): > 120 µM

Structure (SMILES): CC[C@H](C)[C@H](NC(=O)[C@H](CCCCN)NC(=O)[C@H](CCCCN)NC(=O)[C@H](C)NC(=O)[C@H](CC(C)C)NC(=O)[C@H](CC(N)=O)NC(=O)[C@@H](NC(=O)[C@H](CC(C)C)NC(=O)[C@@H](NC(=O)CNC(=O)[C@H](CC(C)C)NC(=O)[C@H](Cc1ccccc1)NC(=O)[C@@H](N)CC(N)=O)[C@@H](C)O)[C@@H](C)CC)C(=O)N[C@@H](CCSC)C(N)=O [NFLGTLINLAKKIM]
- MIC [7]: ≥ 150 µM
- MIC [8]: ≥ 48 µM
- MIC [6]: > 150 µM

Structure (SMILES): CC[C@H](C)[C@H](NC(=O)[C@@H](NC(=O)[C@H](C)NC(=O)[C@@H]1CCCN1C(=O)[C@H](Cc1ccccc1)NC(=O)[C@@H](NC(=O)[C@H](CCCCN)NC(=O)[C@H](CO)NC(=O)[C@H](C)NC(=O)[C@@H](NC(=O)[C@H](CCCN=C(N)N)NC(=O)CNC(=O)[C@@H](NC(=O)[C@@H](NC(=O)[C@@H]1CCCN1)C(C)C)C(C)C)C(C)C)C(C)C)C(C)C)C(=O)NCC(=O)N[C@@H](CC(C)C)C(=O)N[C@H](C(=O)N[C@@H](CCCCN)C(=O)N[C@@H](CCCCN)C(=O)O)C(C)C [PVVGRVASKVFPAVIGLVKK]
- MIC (Bacillus cereus): ≥ 124 µM
- MIC (Escherichia coli): > 124 µM

Structure (SMILES): CC[C@H](C)[C@H](NC(=O)[C@H](Cc1ccccc1)NC(=O)[C@@H](NC(=O)[C@H](CC(C)C)NC(=O)[C@H](CCCN=C(N)N)NC(=O)[C@H](CCCCN)NC(=O)[C@H](CCCN=C(N)N)NC(=O)[C@H](CCCCN)NC(=O)[C@H](CC(C)C)NC(=O)[C@H](CC(C)C)NC(=O)[C@@H](NC(=O)[C@@H](N)Cc1ccc(O)cc1)C(C)C)[C@@H](C)CC)C(=O)O [YVLLKRKRLIFI]
- MIC [1]: > 200 µM
- MIC (Bacillus subtilis): ≥ 200 µM
- MIC [4]: > 200 µM
- MIC [15]: ≥ 50 µM
